Assay [1] deals with T1, GST-RIPK2 fusion protein (human RIPK2, amino acids 1-310) (Homo sapiens, UniProt O43353).
T1 construct: made in house; host or cells: baculovirus infected Sf9 cells
The experiment in a line: RIPK2 binding competition assay (TR-FRET, Tracer 199 displacement). To be noted: 10 nM Tracer 199, 1 nM GST-RIPK2, read-out: RIPK2 IC50. The gist of the method: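 GST-RIPK2 (human aa 1-310, Sf9-expressed; final 1 nM) with Tracer 199 (final 10 nM) and Tb-anti-GST (final 0.5 nM) in Tris pH 7.5 buffer, 45 min at 22 °C. TR-FRET 665/620 nm ratio after 337 nm excitation; normalized to no-inhibitor (0%) and no-protein (−100%), giving IC50.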

The target in assay [2] is T2, binding of His-XIAP(BIR2)-avi fusion protein to GST-RIPK2 fusion protein (RIPK2/XIAP) (Homo sapiens, UniProt O43353).
T2 construct: made in house; host or cells: baculovirus infected Sf9 cells
T2 sequence (O43353 1-310 limits assumed): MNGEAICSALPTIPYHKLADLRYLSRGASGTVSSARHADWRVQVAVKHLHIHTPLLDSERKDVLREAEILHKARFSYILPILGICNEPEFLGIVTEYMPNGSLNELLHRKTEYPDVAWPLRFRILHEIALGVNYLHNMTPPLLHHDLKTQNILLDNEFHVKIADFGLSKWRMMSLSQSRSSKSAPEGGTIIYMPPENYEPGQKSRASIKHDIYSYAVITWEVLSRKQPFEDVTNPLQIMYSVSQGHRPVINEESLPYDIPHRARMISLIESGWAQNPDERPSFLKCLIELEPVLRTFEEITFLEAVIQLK
Kind of assay: RIPK2-XIAP binding competition PPI assay (TR-FRET). Particulars: RIPK2/XIAP binding competition PPI assay; for Emax: Amax, read-out: PPI Amax bin; for IC50: read-out: PPI IC50 bin. The method, boiled down:
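Compounds (in DMSO, 100-fold stock) incubated 120 min at 23 °C with 1 nM GST-RIPK2 (aa 1-310) and 25 nM His-XIAP(BIR2 aa 152-231)-avi, plus anti-His-XL665 and anti-GST-Tb, in pH 7.5 Tris buffer. Read-out: 665/520 nm emission ratio. Normalized to no-inhibitor (0%) and 50 nM GSK583 (−100%); Amax binned A–D.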

Assay [3] deals with NF-κB pathway (SEAP) in THP1-Dual cells. Kind of assay: THP-1 Dual cell SEAP assay (L18-MDP stimulated). Particulars: Homo sapiens, THP1-Dual, read-out: NF-κB THP1 IC50 bin. Type of assay: cell-based. The method, boiled down: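 THP1-Dual cells (~25,000/well) were preincubated 30 min with serially diluted compounds, then stimulated with 10 ng/mL L18-MDP (final) for 20-24 h at 37 °C. Supernatant SEAP was read with QUANTI-Blue at OD 620-655 nm after 2 h. IC50 came from non-linear fits of % inhibition versus DMSO/L18-MDP controls after media-blank subtraction.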

Some results are limits rather than exact numbers.

T1 sequence (O43353 1-310): as the sequence (O43353 1-310 limits assumed) above

On to `COc1cc2ncc(-c3cc(F)c(OC)c4nn(CCO)cc34)n2cc1S(=O)(=O)C(C)(C)C` [Example 122, 2-(4-(6-(tert-butylsulfonyl)-7-methoxyimidazo[1,2-a]pyridin-3-yl)-6-fluoro-7-methoxy-2HI-indazol-2-yl)ethan-1-ol], for which the half-maximal inhibitory concentration (IC50) in assay [1] was greater than 20 nM; in assay [2] it was greater than 20 nM; in assay [3], greater than 1000 nM. Besides, the Emax in assay [2] is less than 30%.
Consider `COc1cc2ncc(-c3cnc4c(c3)OCCN4C)n2cc1S(=O)(=O)C(C)(C)C` [Example 123, 7-(6-(tert-butylsulfonyl)-7-methoxyimidazo[1,2-a]pyridin-3-yl)-4-methyl-3,4-dihydro-2H-pyrido[3,2-b][1,4]oxazine], for which the IC50 in assay [1] is greater than 20 nM; in assay [2], greater than 20 nM; in assay [3], greater than 1000 nM. Also, in assay [2], the Emax lay in the range of 30 to 55%.
With `COc1cc2ncc(-c3cc(F)c(N)nc3F)n2cc1S(=O)(=O)C1(C)CCN(C2COC2)CC1` [Example 124, 3,6-difluoro-5-(7-methoxy-6-((4-methyl-1-(oxetan-3-yl)piperidin-4-yl)sulfonyl)imidazo[1,2-a]pyridin-3-yl)pyridin-2-amine], the 50% inhibitory concentration (IC50) is 2.5 to 20 nM in assay [1], greater than 20 nM in assay [2] and greater than 1000 nM in assay [3]. In addition, the Emax in assay [2] is greater than 80%.
As for `COCCN1CCC(C)(S(=O)(=O)c2cn3c(-c4cc(F)c(N)nc4F)cnc3cc2OC)CC1` [Example 125, 3,6-difluoro-5-(7-methoxy-6-((1-(2-methoxyethyl)-4-methylpiperidin-4-yl)sulfonyl)imidazo[1,2-a]pyridin-3-yl)pyridin-2-amine], the 50% inhibitory concentration (IC50) in assay [1] is 2.5 to 20 nM; in assay [2] it was 2.5 to 20 nM; in assay [3] it was 250 to 1000 nM. In assay [2], the Emax is greater than 80%.
As for `CCCS(=O)(=O)Nc1cc(-c2cnc3cc(OC)c(S(=O)(=O)C(C)(C)CO)cn23)cc(F)c1OC` [Example 126, N-(3-fluoro-5-(6-((1-hydroxy-2-methylpropan-2-yl)sulfonyl)-7-methoxyimidazo[1,2-a]pyridin-3-yl)-2-methoxyphenyl)propane-1-sulfonamide], the IC50 in assay [1] is less than 1 nM; in assay [2], less than 1 nM; in assay [3], less than 50 nM. The Emax in assay [2] was greater than 80%.
Turning to `CCCS(=O)(=O)Nc1cc(-c2cnc3cc(OC)c(C4(O)CCOCC4)cn23)cc(F)c1OC` [Example 127, N-(3-fluoro-5-(6-(4-hydroxytetrahydro-2H-pyran-4-yl)-7-methoxyimidazo[1,2-a]pyridin-3-yl)-2-methoxyphenyl)propane-1-sulfonamide], the 50% inhibitory concentration (IC50) in assay [1] fell in the range of 1 to 2.5 nM; in assay [2] it was 1 to 2.5 nM; in assay [3] it was 50 to 250 nM. Besides, the Emax in assay [2] is greater than 80%.
For the compound `CCS(=O)(=O)Nc1cc(-c2cnc3cc(OC)c(S(=O)(=O)C(C)(C)CO)cn23)cc(Cl)c1OC` [Example 128, N-(3-chloro-5-(6-((1-hydroxy-2-methylpropan-2-yl)sulfonyl)-7-methoxyimidazo[1,2-a]pyridin-3-yl)-2-methoxyphenyl)ethanesulfonamide], the IC50 in assay [1] is 1 to 2.5 nM; in assay [2] it was 1 to 2.5 nM; in assay [3] it was 50 to 250 nM. The Emax in assay [2] lay within 55 to 80%.
Turning to `CCCS(=O)(=O)Nc1cc(-c2cnc3cc(OC)c(S(=O)(=O)C(C)(C)CO)cn23)cc(Cl)c1OC` [Example 129, N-(3-chloro-5-(6-((1-hydroxy-2-methylpropan-2-yl)sulfonyl)-7-methoxyimidazo[1,2-a]pyridin-3-yl)-2-methoxyphenyl)propane-1-sulfonamide], the IC50 in assay [1] was less than 1 nM; in assay [2], less than 1 nM; in assay [3] it was 50 to 250 nM. In assay [2], the Emax was greater than 80%.
With `CCS(=O)(=O)Nc1cc(-c2cnn3cc(OCCO)c(S(=O)(=O)C(C)(C)C)cc23)cc(F)c1OC` [Example 130, N-(5-(5-(tert-butylsulfonyl)-6-(2-hydroxyethoxy)pyrazolo[1,5-a]pyridin-3-yl)-3-fluoro-2-methoxyphenyl)ethanesulfonamide], the IC50 was less than 1 nM in assay [1], less than 1 nM in assay [2] and less than 50 nM in assay [3]. In addition, in assay [2], the Emax lay within 55 to 80%.
For the compound `CCS(=O)(=O)Nc1cc(-c2cnn3cc(OC)c(N4C(=O)OCC4(C)C)nc23)cc(F)c1OC` [Example 131, N-(5-(5-(4,4-dimethyl-2-oxooxazolidin-3-yl)-6-methoxypyrazolo[1,5-a]pyrimidin-3-yl)-3-fluoro-2-methoxyphenyl)ethanesulfonamide], the IC50 in assay [1] lay in the range of 2.5 to 20 nM; in assay [2], 2.5 to 20 nM; in assay [3], 250 to 1000 nM. In assay [2], the Emax was greater than 80%.
Turning to `CCCS(=O)(=O)Nc1cc(-c2cnn3cc(OC)c(S(=O)(=O)C(C)(C)CO)cc23)cc(F)c1OC` [Example 132], the results for the half-maximal inhibitory concentration (IC50) in assay [1], in assay [2] and in assay [3] were less than 1 nM, less than 1 nM and less than 50 nM, respectively. Further, the Emax in assay [2] is greater than 80%.
With `[2H]C([2H])([2H])Oc1c(F)cc(-c2cnc3cc(OC)c(S(=O)(=O)C(C)(C)C)cn23)cc1NS(=O)(=O)CC1COC1` [Example 133, N-(5-(6-(tert-butylsulfonyl)-7-methoxyimidazo[1,2-a]pyridin-3-yl)-3-fluoro-2-(methoxy-d3)phenyl)-1-(oxetan-3-yl)methanesulfonamide], the IC50 in assay [1] was less than 1 nM; in assay [2] it was less than 1 nM; in assay [3], less than 50 nM. Moreover, the Emax in assay [2] was in the range of 55 to 80%.
On to `COc1cc2ncc(-c3cc(F)c(OC)c(NS(=O)(=O)c4ccn(C)n4)c3)n2cc1S(=O)(=O)C(C)(C)C` [Example 134, N-(5-(6-(tert-butylsulfonyl)-7-methoxyimidazo[1,2-a]pyridin-3-yl)-3-fluoro-2-methoxyphenyl)-1-methyl-1H-pyrazole-3-sulfonamide], for which the figures for the IC50 in assay [1], in assay [2] and in assay [3] were 1 to 2.5 nM, less than 1 nM and less than 50 nM, respectively. Besides, in assay [2], the Emax is greater than 80%.
In the case of `COc1cc2ncc(-c3cc(F)c(OC)c(NS(=O)(=O)c4cnn(C)c4)c3)n2cc1S(=O)(=O)C(C)(C)C` [Example 135, N-(5-(6-(tert-butylsulfonyl)-7-methoxyimidazo[1,2-a]pyridin-3-yl)-3-fluoro-2-methoxyphenyl)-1-methyl-1H-pyrazole-4-sulfonamide], the IC50 in assay [1] is less than 1 nM; in assay [2], less than 1 nM; in assay [3] it was less than 50 nM. The Emax in assay [2] was greater than 80%.
Regarding `COc1cc2ncc(-c3cc(F)c(OC)c(NS(=O)(=O)c4cccnc4)c3)n2cc1S(=O)(=O)C(C)(C)C` [Example 141, N-(5-(6-(tert-butylsulfonyl)-7-methoxyimidazo[1,2-a]pyridin-3-yl)-3-fluoro-2-methoxyphenyl)pyridine-3-sulfonamide], the IC50 in assay [1] was less than 1 nM; in assay [2] it was less than 1 nM; in assay [3] it was less than 50 nM. Further, the Emax in assay [2] is greater than 80%.
Regarding `COc1cc2ncc(-c3cc(F)c(OC)c(NS(=O)(=O)C4COC4)c3)n2cc1S(=O)(=O)C(C)(C)C` [Example 142, N-(5-(6-(tert-butylsulfonyl)-7-methoxyimidazo[1,2-a]pyridin-3-yl)-3-fluoro-2-methoxyphenyl)oxetane-3-sulfonamide], the IC50 in assay [1] was 1 to 2.5 nM; in assay [2] it was 1 to 2.5 nM; in assay [3], 250 to 1000 nM. Moreover, the Emax in assay [2] is greater than 80%.
For the compound `COc1cc2ncc(-c3cc(F)c(OC)c(NS(=O)(=O)CC(F)(F)F)c3)n2cc1S(=O)(=O)C(C)(C)C` [Example 143, N-(5-(6-(tert-butylsulfonyl)-7-methoxyimidazo[1,2-a]pyridin-3-yl)-3-fluoro-2-methoxyphenyl)-2,2,2-trifluoroethane-1-sulfonamide], the results for the IC50 in assay [1], in assay [2] and in assay [3] were 1 to 2.5 nM, 1 to 2.5 nM and 250 to 1000 nM, respectively. In addition, in assay [2], the Emax lay in the range of 55 to 80%.
Regarding `C=CS(=O)(=O)Nc1cc(-c2cnc3cc(OC)c(S(=O)(=O)C(C)(C)C)cn23)cc(OC)c1OC` [Example 144, N-(5-(6-(tert-butylsulfonyl)-7-methoxyimidazo[1,2-a]pyridin-3-yl)-2,3-dimethoxyphenyl)ethenesulfonamide], the concentration for half-maximal inhibition (IC50) in assay [1] is 1 to 2.5 nM; in assay [2], less than 1 nM; in assay [3], less than 50 nM. In addition, in assay [2], the Emax was greater than 80%.
Taken in the same sequence, the figures for `COc1cc2ncc(-c3cc(F)c(OC)c(NS(=O)(=O)C4CCC4)c3)n2cc1S(=O)(=O)C(C)(C)C` [Example 145, N-(5-(6-(tert-butylsulfonyl)-7-methoxyimidazo[1,2-a]pyridin-3-yl)-3-fluoro-2-methoxyphenyl)cyclobutanesulfonamide] were less than 1 nM, less than 1 nM, less than 50 nM and greater than 80%.

For orientation: IC50 means the point on the concentration scale where inhibition reaches its midpoint.
